Data reported in the supplement of paper PMC10307832.

Experiments:
Test in all cases: relative viability (nuclei count vs DMSO), 5 days (fraction); higher = more cells survive
[1] = system: 201T
Method in brief: (§1)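 Relative viability equals treated-well nuclei counts divided by vehicle-well nuclei counts. Counts came from 4× images of lung cancer cell lines grown in 1536-well plates for 5 days after pin-tool dosing on the day after seeding. Dosing used one drug alone or a fixed anchor-drug dose plus five library-drug doses (not always all listed) in √10 steps, and values are medians of duplicate plates.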

[2] = system: BEN
Method in brief: as §1

[3] = system: COR-L 105
Method in brief: as §1

[4] = system: COR-L23
Method in brief: as §1

[5] = system: EKVX
Method in brief: as §1

[6] = system: HCC-15
Method in brief: as §1

[7] = system: HCC-366
Method in brief: as §1

[8] = system: HCC-78
Method in brief: as §1

[9] = system: HCC-827
Method in brief: as §1

[10] = system: LC-2-ad
Method in brief: as §1

[11] = system: LK-2
Method in brief: as §1

[12] = system: LU99A
Method in brief: as §1

[13] = system: NCI-H1650
Method in brief: as §1

[14] = system: NCI-H1734
Method in brief: as §1

[15] = system: NCI-H1755
Method in brief: as §1

[16] = system: NCI-H1915
Method in brief: as §1

[17] = system: NCI-H1944
Method in brief: as §1

[18] = system: NCI-H2347
Method in brief: as §1

[19] = system: NCI-H441
Method in brief: as §1

[20] = system: NCI-H661
Method in brief: as §1

[21] = system: PC-3 [JPC-3]
Method in brief: as §1

[22] = system: RERF-LC-KJ
Method in brief: as §1

[23] = system: SW 900
Method in brief: as §1

`C=C1C(=O)O[C@@H](CCCCCCCC)[C@@H]1C(=O)O` [C-75] + Cc1nc(Nc2ncc(C(=O)Nc3c(C)cccc3Cl)s2)cc(N2CCN(CCO)CC2)n1 [Dasatinib] (partner 0.075 µM) gave a relative viability ([1]; first compound 0.08 µM) of 0.612, a relative viability ([1]; first compound 0.253 µM) of 0.707 and a relative viability ([1]; first compound 0.8 µM) of 0.568. It also gave a relative viability ([1]; first compound 2.53 µM) of 0.511, a relative viability ([1]; first compound 8 µM) of 0.56 and a relative viability ([2]; first compound 0.08 µM) of 0.317. The relative viability ([2]; first compound 0.253 µM) was 0.271, the relative viability ([2]; first compound 0.8 µM) was 0.326 and the relative viability ([2]; first compound 8 µM) was 0.288. It also gave a relative viability ([3]; first compound 0.08 µM) of 0.401, a relative viability ([3]; first compound 0.253 µM) of 0.243 and a relative viability ([3]; first compound 0.8 µM) of 0.358. For the same molecule, the relative viability ([3]; first compound 2.53 µM) was 0.338, the relative viability ([3]; first compound 8 µM) was 0.303 and the relative viability ([4]; first compound 0.08 µM) was 0.518. For the same molecule, the relative viability ([4]; first compound 0.253 µM) was 0.532, the relative viability ([4]; first compound 0.8 µM) was 0.489 and the relative viability ([4]; first compound 2.53 µM) was 0.328. For the same molecule, the relative viability ([4]; first compound 8 µM) was 0.48, the relative viability ([5]; first compound 0.08 µM) was 0.535 and the relative viability ([5]; first compound 0.253 µM) was 0.584. The relative viability ([5]; first compound 0.8 µM) was 0.564, the relative viability ([5]; first compound 8 µM) was 0.481 and the relative viability ([6]; first compound 0.08 µM) was 0.644. The relative viability ([6]; first compound 0.253 µM) was 0.571, the relative viability ([6]; first compound 0.8 µM) was 0.602 and the relative viability ([6]; first compound 2.53 µM) was 0.498. The relative viability ([6]; first compound 8 µM) was 0.528, the relative viability ([7]; first compound 0.08 µM) was 0.744 and the relative viability ([7]; first compound 0.253 µM) was 0.623. For the same molecule, the relative viability ([7]; first compound 0.8 µM) was 0.605, the relative viability ([7]; first compound 8 µM) was 0.443 and the relative viability ([8]; first compound 0.08 µM) was 0.418. It also gave a relative viability ([8]; first compound 0.253 µM) of 0.469, a relative viability ([8]; first compound 0.8 µM) of 0.341 and a relative viability ([8]; first compound 2.53 µM) of 0.274. The relative viability ([8]; first compound 8 µM) was 0.347, the relative viability ([9]; first compound 0.08 µM) was 0.28 and the relative viability ([9]; first compound 0.253 µM) was 0.356. For the same molecule, the relative viability ([9]; first compound 0.8 µM) was 0.301, the relative viability ([9]; first compound 2.53 µM) was 0.221 and the relative viability ([9]; first compound 8 µM) was 0.347. The relative viability ([10]; first compound 0.08 µM) was 0.491, the relative viability ([10]; first compound 0.253 µM) was 0.521 and the relative viability ([10]; first compound 0.8 µM) was 0.468. For the same molecule, the relative viability ([10]; first compound 2.53 µM) was 0.455, the relative viability ([10]; first compound 8 µM) was 0.4 and the relative viability ([11]; first compound 0.08 µM) was 0.388. The relative viability ([11]; first compound 0.253 µM) was 0.433, the relative viability ([11]; first compound 0.8 µM) was 0.309 and the relative viability ([11]; first compound 2.53 µM) was 0.237. The relative viability ([11]; first compound 8 µM) was 0.291, the relative viability ([12]; first compound 0.08 µM) was 0.597 and the relative viability ([12]; first compound 0.253 µM) was 0.558. It also gave a relative viability ([12]; first compound 0.8 µM) of 0.549, a relative viability ([12]; first compound 2.53 µM) of 0.495 and a relative viability ([12]; first compound 8 µM) of 0.38. For the same molecule, the relative viability ([13]; first compound 0.08 µM) was 0.334, the relative viability ([13]; first compound 0.253 µM) was 0.359 and the relative viability ([13]; first compound 2.53 µM) was 0.31. It also gave a relative viability ([13]; first compound 8 µM) of 0.305, a relative viability ([14]; first compound 0.08 µM) of 0.525 and a relative viability ([14]; first compound 0.253 µM) of 0.415. The relative viability ([14]; first compound 0.8 µM) was 0.465, the relative viability ([14]; first compound 2.53 µM) was 0.351 and the relative viability ([14]; first compound 8 µM) was 0.337. The relative viability ([15]; first compound 0.08 µM) was 0.42, the relative viability ([15]; first compound 0.253 µM) was 0.33 and the relative viability ([15]; first compound 0.8 µM) was 0.404. For the same molecule, the relative viability ([15]; first compound 2.53 µM) was 0.259, the relative viability ([15]; first compound 8 µM) was 0.43 and the relative viability ([16]; first compound 0.08 µM) was 0.343. The relative viability ([16]; first compound 0.253 µM) was 0.304, the relative viability ([16]; first compound 0.8 µM) was 0.311 and the relative viability ([16]; first compound 2.53 µM) was 0.289. For the same molecule, the relative viability ([16]; first compound 8 µM) was 0.383, the relative viability ([17]; first compound 0.08 µM) was 0.234 and the relative viability ([17]; first compound 0.253 µM) was 0.169. For the same molecule, the relative viability ([17]; first compound 0.8 µM) was 0.193, the relative viability ([17]; first compound 8 µM) was 0.225 and the relative viability ([18]; first compound 0.08 µM) was 0.367. It also gave a relative viability ([18]; first compound 0.253 µM) of 0.448, a relative viability ([18]; first compound 0.8 µM) of 0.25 and a relative viability ([18]; first compound 8 µM) of 0.32. For the same molecule, the relative viability ([19]; first compound 0.08 µM) was 0.545, the relative viability ([19]; first compound 0.253 µM) was 0.916 and the relative viability ([19]; first compound 0.8 µM) was 0.723. The relative viability ([19]; first compound 2.53 µM) was 0.463, the relative viability ([19]; first compound 8 µM) was 0.594 and the relative viability ([20]; first compound 0.08 µM) was 0.839. It also gave a relative viability ([20]; first compound 0.253 µM) of 0.795, a relative viability ([20]; first compound 0.8 µM) of 0.857 and a relative viability ([20]; first compound 2.53 µM) of 0.856. The relative viability ([20]; first compound 8 µM) was 0.746, the relative viability ([21]; first compound 0.08 µM) was 1.01 and the relative viability ([21]; first compound 0.253 µM) was 0.994. The relative viability ([21]; first compound 0.8 µM) was 1.01, the relative viability ([21]; first compound 2.53 µM) was 0.937 and the relative viability ([21]; first compound 8 µM) was 1. The relative viability ([22]; first compound 0.08 µM) was 0.917, the relative viability ([22]; first compound 0.253 µM) was 0.901 and the relative viability ([22]; first compound 0.8 µM) was 0.819. For the same molecule, the relative viability ([22]; first compound 2.53 µM) was 0.682, the relative viability ([22]; first compound 8 µM) was 0.798 and the relative viability ([23]; first compound 0.08 µM) was 0.531. The relative viability ([23]; first compound 0.253 µM) was 0.796, the relative viability ([23]; first compound 0.8 µM) was 0.829 and the relative viability ([23]; first compound 2.53 µM) was 0.548. For the same molecule, the relative viability ([23]; first compound 8 µM) was 0.449.
